According to US8202899B2, “Pyrazole urea derivatives used as kinase inhibitors” (Array BioPharma Inc., priority 2007, dated 2012):
In brackets after ≈: the same amount, converted by molar mass. Read-outs that look alike come from different tables or passages of the source.

What was measured:
[1] = Solubility Assay (modified shake flask method); assay type: physicochemical
Procedure: The solubility of each of the compounds of Examples 1 and 2 were tested at pHs 1.2, 6.5 and 7.4 using a modified shake flask method. The compounds were received as 1.6 mg/mL stock solutions in DMSO. Aqueous unknowns were prepared at final concentrations of 16 μg/mL and 32 μg/mL, with each aqueous unknown containing 1% or 2% DMSO, respectively. The aqueous samples were quantitated against organic standards prepared in MeOH (with 1% DMSO in the high standard (16 μg/mL). UV 220 nm and UV 254 nm area were used for quantitation.

[2] = target: activated p38α enzyme (Homo sapiens, UniProt Q16539); assay: p38 Biochemical Assay
Sequence of activated p38α enzyme (Q16539 whole entry, the tested form may be a part): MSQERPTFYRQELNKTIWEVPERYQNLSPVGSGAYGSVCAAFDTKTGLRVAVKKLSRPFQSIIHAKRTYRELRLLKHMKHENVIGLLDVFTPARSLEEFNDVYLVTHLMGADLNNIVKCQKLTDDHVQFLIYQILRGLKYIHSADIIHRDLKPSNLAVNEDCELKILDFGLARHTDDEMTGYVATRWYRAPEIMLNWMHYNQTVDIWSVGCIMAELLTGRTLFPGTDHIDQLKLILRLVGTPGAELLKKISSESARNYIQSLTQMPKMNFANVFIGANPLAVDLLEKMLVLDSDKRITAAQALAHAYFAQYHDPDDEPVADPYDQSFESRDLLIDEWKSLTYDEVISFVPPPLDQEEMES
Procedure: p38 activity was assayed at room temperature in a 100 μL reaction containing 5 nM activated p38α enzyme and 1 μM ATF-2 (Activating Transcription Factor 2 fusion protein) as the substrate in […] HEPES (pH 7.4), 100 μM Vanadate, 1 mM :DTT, 10 mM MgCl2 and 10 μM [γ-^33P]-ATP (˜0.1 μCi P^33/reaction). The reaction was terminated after 30-40 minutes by adding 25% TCA, allowed to stand for 5 minutes, and then transferred directly to a GF-B membrane filter plate. The filter was washed twice for 30 seconds with 0.5% phosphoric acid using a Tomtec Mach III Automated Harvestor. After washing, the vacuum was continued for 30 seconds to dry the filter. Approximately 30 μL of scintillant was added per well to the filter plate and then read in a Liquid Scintillation Counter (Packard TopCount HTS).

[3] = tested on: TNF-α production in whole blood treated with LPS; assay: Human Whole Blood TNF-α Assay; assay type: cell-based; conditions: inhibition of LPS-induced TNF-α production, ELISA, read-out: apparent IC50
Procedure: In a functional cell assay, the compound of Examples 1 and 2 were tested for their ability to inhibit TNF-α production in whole blood treated with bacterial lipopolysaccharide (LPS) to induce cytokine production (as detected by ELISA).
Compound test solutions were made by making 3.33 fold serial dilutions in DMSO, which dilutions were then diluted to 5× stocks by diluting with MEM, 2% heat inactivated fetal bovine serum (“MS”), 20 mM HEPES, 2 mM L-glutamine, and 1% penicillin/streptomycin
Whole blood was collected from human volunteers using sodium heparin Vacutainer™ tubes and processed within two hours of collection. Blood was diluted 3-fold with Whole Blood (WB) medium (RPMI 1640, 2% heat inactivated fetal bovine serum, 20 mM HEPES, 2 mM L-glutamine, and 1% penicillin/streptomycin). 100 μL of diluted blood was added to each well of a 96-well cell culture plate, followed by 30 μL of a compound test solution.
After a one-hour incubation at 37° C./5% CO2, 20 μL of 7.5 ng/mL lipopolysaccharide (E. coli K-235, Sigma L2018) was added to each well. The cells were incubated again at 37° C./5% CO2 for 16-20 hours. […]
Briefly, test compound supernatants were added to wells of a 96-well plate that were coated with antibody to human TNF-α (R&D Systems, MAB210) and incubated at room temperature for at least one hour. […] The absorbance at 405 nm was then read.

| SMILES | solubility ([1]; aqueous solution (pH 7.4), aqueous buffer, pH 7.4, starting conc. 1000 μg/mL, read-out: Solubility pH 7.4) | p38 inhibition potency compared to the compound of Example 138 of WO 2004/078116 [2] | IC50 [3] | solubility ([1]; aqueous sample containing 1% DMSO, aqueous buffer, kinetic from dmso stock, pH 6.5, starting conc. 16 μg/mL (with 1% DMSO), read-out: Solubility pH 6.5) | solubility ([1]; aqueous sample containing 1% DMSO, aqueous buffer, kinetic from dmso stock, pH 7.4, starting conc. 16 μg/mL (with 1% DMSO), read-out: Solubility pH 7.4) | solubility ([1]; aqueous sample containing 1% DMSO, simulated gastric fluid, kinetic from dmso stock, pH 1.2, starting conc. 16 μg/mL (with 1% DMSO), read-out: Solubility pH 1.2) | solubility ([1]; aqueous sample containing 2% DMSO, aqueous buffer, kinetic from dmso stock, pH 6.5, starting conc. 32 μg/mL (with 2% DMSO), read-out: Solubility pH 6.5) | solubility ([1]; aqueous sample containing 2% DMSO, aqueous buffer, kinetic from dmso stock, pH 7.4, starting conc. 32 μg/mL (with 2% DMSO), read-out: Solubility pH 7.4) | solubility ([1]; aqueous sample containing 2% DMSO, simulated gastric fluid, kinetic from dmso stock, pH 1.2, starting conc. 32 μg/mL (with 2% DMSO), read-out: Solubility pH 1.2) | aqueous solubility compared to the compound of Example 138 of WO 2004/078116 ([1]; at pH 6.5 and 7.4) |
| --- | --- | --- | --- | --- | --- | --- | --- | --- | --- | --- |
| Cn1nc(C(C)(C)C)cc1NC(=O)NCc1cc(F)ccc1Oc1ccc2c(cnn2CC(C)(C)O)c1 [Example 138, reference compound] | 0.045 µg/mL (≈ 0.0885 µM) |  |  |  |  |  |  |  |  |  |
| CC(C)(C)c1cc(NC(=O)NCc2cc(F)ccc2Oc2ccc3c(cnn3CCO)c2)n(-c2ccc(CO)cc2)n1 [Example 2, 1-(3-tert-butyl-1-(4-(hydroxymethyl)phenyl)-1H-pyrazol-5-yl)-3-(5-fluoro-2-(1-(2-hydroxymethyl)-1H-indazol-5-yloxy)benzyl)urea] |  | significantly more potent inhibitor of p38 | 1.9 nM |  |  |  |  |  |  |  |
| Cc1ccc(-n2nc(C(C)(C)CO)cc2NC(=O)NCc2cc(F)ccc2Oc2ccc3c(cnn3CCO)c2)cc1 [Example 1] |  |  | 447 nM | 0.75 µg/mL (≈ 1.31 µM) | 0.7 µg/mL (≈ 1.22 µM) | 7.9 µg/mL (≈ 13.8 µM) | 1.8 µg/mL (≈ 3.14 µM) | 1.7 µg/mL (≈ 2.97 µM) | 18.8 µg/mL (≈ 32.8 µM) | improved aqueous solubility |
